Laboratory results taken from patent publication US20250108048A1, “STING AGONIST COMPOUNDS AND CONJUGATES” (SUTRO BIOPHARMA, INC., priority 2023, published 2025).
pKd: −log10 of the molar value.

How the values were obtained:
hSTING WT = hSTING WT (Homo sapiens, UniProt Q86WV6); assay: Surface plasmon resonance, hSTING WT; format: binding; conditions: read-out: hSTING WT SPR (Kd)
hSTING AQ = hSTING AQ (Homo sapiens, UniProt Q86WV6, G230A/H232R/R293Q); assay: Surface plasmon resonance, hSTING AQ; format: binding; conditions: read-out: hSTING AQ SPR (Kd)
Chain of hSTING AQ (Q86WV6 whole entry G230A/H232R/R293Q): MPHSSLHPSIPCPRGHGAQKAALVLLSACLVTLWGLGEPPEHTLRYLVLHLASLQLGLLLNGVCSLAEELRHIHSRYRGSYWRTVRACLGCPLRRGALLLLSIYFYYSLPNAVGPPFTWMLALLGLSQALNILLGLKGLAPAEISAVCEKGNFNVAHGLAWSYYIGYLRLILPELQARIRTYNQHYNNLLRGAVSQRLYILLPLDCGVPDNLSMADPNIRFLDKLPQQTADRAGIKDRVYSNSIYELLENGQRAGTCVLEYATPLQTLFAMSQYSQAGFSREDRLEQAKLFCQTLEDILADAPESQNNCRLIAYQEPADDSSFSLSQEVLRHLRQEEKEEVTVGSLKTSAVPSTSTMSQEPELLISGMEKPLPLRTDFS

hSTING-HAQ haplotype = target: T1, hSTING-HAQ haplotype (Homo sapiens, UniProt Q86WV6, G230A/H232R/R293Q/R71H); assay: THP-1-Dual reporter assay (endogenous hSTING-HAQ); format: cell-based; conditions: THP-1-Dual cells (hSTING-HAQ), 24 hours
T1 construct: host or cells: THP-1-Dual
T1 sequence (Q86WV6 whole entry R71H/G230A/H232R/R293Q): as the sequence (Q86WV6 whole entry G230A/H232R/R293Q) above, with R71H counted along it
Method: (§1) The activities of the STING agonists to activate human or mouse STING pathways were evaluated in THP-1-Dual™, THP1-Dual™ KI-hSTING-R232, THP1-Dual™ KI-hSTING-H232 Cells and THP1-Dual™ KI-mSTING Cells. THP-1-Dual™ cells contains hSTING-HAQ haplotype and can be used to evaluate the activity of STING agonists by monitoring the activation of NF-κB pathway and the […] (IFN regulatory factor) pathways. THP1-Dual™ KO-STING cells were generated from THP1-Dual™ cells by stable knockout of the endogenous HAQ STING gene. THP1-Dual™ KI-hSTING-R232 cells, THP1-Dual™ KI-hSTING-H232 cells and THP1-Dual™ KI-mSTING cells were generated by transfecting THP1-Dual™ KO-STING cells with hSTING-R232 or hSTING-H232 or mSTING. Stimulating these reporter cells with a STING agonist activates TRF pathway and induces the production of a secreted Lucia luciferase in the cell culture medium, which can be determined using QUANTI-Luc™ reagent.
(§2) THP-1-Dual™, THP1-Dual™ KI-hSTING-R232, THP1-Dual™ KI-hSTING-H232 and THP1-Dual™ KI-mSTING reporter cells were purchased from Invivogen and maintained in manufacture recommended culture medium with required supplemental antibiotics. On the day of assay, the cells were harvested with Accutase and counted by the Vi-CELL Cell Viability Analyzers. Cells were resuspended in HEK blue detection medium and a total of 10000 cells were seeded in each well of a 384-well flat bottom plate. […] After incubation at 37° C. in a CO2 incubator for 24 hours, 20 μl of cell culture medium per well was transferred into a 384-well white (opaque) plate. 50 μl of QUANTI-Luc™ assay solution was then added to each well and the plate was immediately transferred to an ENVISION® plate reader to measure luminescence (Perkin-Elmer). Relative luminescence readings were converted to fold change of signal using untreated cells as controls. Data was fitted with non-linear regression analysis, using log (agonist) vs. response, variable slope, 4-parameter fit equation using GraphPad Prism. Data was expressed as fold change in signal vs. dose of STING agonist in nM with error bars indicating the Standard Deviation (SD) of the quadruplicates. There result was reported in Table 2 as EC50 (the midpoint of the curve, or concentration at which […] of the maximum effect was observed).

mSTING = target: T2, mSTING (Mus musculus, UniProt Q3TBT3); assay: THP1-Dual KI-mSTING reporter assay; format: cell-based; design: host or cells: THP1-Dual KI-mSTING (from THP1-Dual KO-STING); conditions: THP1-Dual KI-mSTING cells, 24 hours; read-out: Reporter assay EC50 (nM) THP-1 mSTING
T2 sequence (Q3TBT3 1-378): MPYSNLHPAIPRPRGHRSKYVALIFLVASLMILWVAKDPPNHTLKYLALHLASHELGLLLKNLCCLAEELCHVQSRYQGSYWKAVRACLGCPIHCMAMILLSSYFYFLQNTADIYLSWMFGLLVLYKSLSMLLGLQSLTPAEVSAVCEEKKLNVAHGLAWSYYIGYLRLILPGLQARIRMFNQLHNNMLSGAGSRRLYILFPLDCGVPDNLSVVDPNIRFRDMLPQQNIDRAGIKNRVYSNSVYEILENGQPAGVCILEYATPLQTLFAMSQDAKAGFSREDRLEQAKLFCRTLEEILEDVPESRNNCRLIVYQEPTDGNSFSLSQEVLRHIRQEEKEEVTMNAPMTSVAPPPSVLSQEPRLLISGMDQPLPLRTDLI
Method: as §1
THP-1-Dual™, THP1-Dual™ KI-hSTING-R232, THP1-Dual™ KI-hSTING-H232 and THP1-Dual™ KI-mSTING reporter cells were purchased from Invivogen and maintained in manufacture recommended culture medium with required supplemental antibiotics. On the day of assay, the cells were harvested with Accutase and counted by the Vi-CELL Cell Viability Analyzers. Cells were resuspended in HEK blue detection medium and a total of 10000 cells were seeded in each well of a 384-well flat bottom plate. Serial dilutions of STING agonists free drugs (1:3 serial dilution starting from 5 uM) was added into treatment wells. After incubation at 37° C. in a CO2 incubator for 24 hours, 20 μl of cell culture medium per well was transferred into a 384-well white (opaque) plate. 50 μl of QUANTI-Luc™ assay solution was then added to each well and the plate was immediately transferred to an ENVISION® plate reader to measure luminescence (Perkin-Elmer). Relative luminescence readings were converted to fold change of signal using untreated cells as controls. Data was fitted with non-linear regression analysis, using log (agonist) vs. response, variable slope, 4-parameter fit equation using GraphPad Prism. Data was expressed as fold change in signal vs. dose of STING agonist in nM with error bars indicating the Standard Deviation (SD) of the quadruplicates. There result was reported in Table 2 as EC50 (the midpoint of the curve, or concentration at which […] of the maximum effect was observed).

hSTING-R232 = target: T3, hSTING-R232 (Homo sapiens, UniProt Q86WV6, H232R); assay: THP1-Dual KI-hSTING-R232 reporter assay (IRF pathway, secreted Lucia luciferase); format: cell-based; conditions: THP1-Dual KI-hSTING-R232 cells, 24 hours; read-out: Reporter assay EC50 (nM) THP-1-R232
T3 construct: host or cells: THP1-Dual KI-hSTING-R232 (from THP1-Dual KO-STING)
T3 sequence (Q86WV6 whole entry H232R): as the sequence (Q86WV6 whole entry G230A/H232R/R293Q) above, with A230G, Q293R counted along it
Method: as §1, §2

hSTING H232 [1] = target: T4, hSTING H232 (Homo sapiens, UniProt Q86WV6); assay: Surface plasmon resonance, hSTING H232; format: binding; conditions: read-out: hSTING H232 SPR (Kd)
T4 sequence (Q86WV6 whole entry): as the sequence (Q86WV6 whole entry G230A/H232R/R293Q) above, with A230G, R232H, Q293R counted along it

hSTING H232 [2] = target: T4, hSTING H232; assay: THP1-Dual KI-hSTING-H232 reporter assay (IRF pathway, secreted Lucia luciferase); format: cell-based; design: host or cells: THP1-Dual KI-hSTING-H232 (from THP1-Dual KO-STING); conditions: THP1-Dual KI-hSTING-H232 cells, 24 hours; read-out: Reporter assay EC50 (nM) THP-1-H232
Method: as §1, §2

Chain of hSTING WT (Q86WV6 whole entry H232R): as the sequence (Q86WV6 whole entry G230A/H232R/R293Q) above, with A230G, Q293R counted along it

| pKd (hSTING WT) | pKd (hSTING AQ) | EC50 (hSTING-HAQ haplotype) [nM] | EC50 (mSTING) [nM] | EC50 (hSTING-R232) [nM] | pKd (hSTING H232 [1]) | EC50 (hSTING H232 [2]) [nM] | Compound |
| --- | --- | --- | --- | --- | --- | --- | --- |
| ≥ 7.70 | ≥ 7.70 | ≤ 50 | ≤ 50 | ≤ 50 | ≥ 7.70 | ≤ 50 | CCn1nc(C)cc1C(=O)Nc1nc2cc(C(N)=O)cc(OC)c2n1C/C=C/Cn1c(NC(=O)c2cc(C)nn2CC)nc2cc(C(N)=O)cc(OCCCN3CC4(C3)CN(C(=O)CCCCCON)CCO4)c21 [LP-6-1] |
| ≥ 7.70 | ≥ 7.70 | > 150 | ≤ 50 | ≤ 50 | ≥ 7.70 | ≤ 50 | CCc1nc(C)oc1C(=O)Nc1nc2cc(C(N)=O)cnc2n1C/C=C/Cn1c(NC(=O)c2oc(C)nc2CC)nc2cc(C(N)=O)cc(OCCCO)c21 [Reference Compd B, reference compound] |
| ≥ 7.70 | ≥ 7.70 | > 150 | > 150 | 50 to 150 | ≥ 7.70 | 50 to 150 | CCn1nc(C)cc1C(=O)Nc1nc2cc(C(N)=O)ccc2n1C/C=C/Cn1c(NC(=O)c2cc(C)nn2CC)nc2cc(C(N)=O)cc(OCCCN3CC4(C3)CN(C(=O)[C@H](CC(C)C)NC(=O)CCCCCO/N=C(\C)c3ccc(C[C@H](N)C(=O)O)cc3)CCO4)c21 [LP-2-3] |
|  |  | > 150 | 50 to 150 | ≤ 50 |  | ≤ 50 | CCc1nc(C)oc1C(=O)Nc1nc2cc(C(N)=O)cc3c2n1C/C=C/Cn1c(NC(=O)c2cc(C)nn2CC)nc2cc(C(N)=O)cc(c21)OCC1(CNC1)CO3 [Compound 26, (3E)-7-[(4-ethyl-2-methyl-oxazole-5-carbonyl)amino]-25-[(2-ethyl-5-methyl-pyrazole-3-carbonyl)amino]spiro[14,18-dioxa-1,6,8,24-tetrazapentacyclo[17.6.1.16,9.023,26.013,27]heptacosa-3,7,9,11,13 (27), 19 (26), 20,22,24-nonaene-16,3′-azetidine]-11,21-dicarboxamide] |

The next lines start with the compound.

| Compound | pKd (hSTING WT) | pKd (hSTING AQ) | EC50 (hSTING-HAQ haplotype) [nM] | EC50 (mSTING) [nM] | EC50 (hSTING-R232) [nM] | pKd (hSTING H232 [1]) | EC50 (hSTING H232 [2]) [nM] |
| --- | --- | --- | --- | --- | --- | --- | --- |
| CCn1nc(C)cc1C(=O)Nc1nc2cc(C(N)=O)cnc2n1C/C=C/Cn1c(NC(=O)c2cc(C)nn2CC)nc2cc(C(N)=O)cc(OCCCN3CCC(c4nnc5n4CCNC5)CC3)c21 [Compound 21] | ≥ 7.70 | ≥ 7.70 | > 150 | > 150 | 50 to 150 | ≥ 7.70 | 50 to 150 |
| CCn1nc(C)cc1C(=O)Nc1nc2cc(C(N)=O)cc(OC)c2n1C/C=C/Cn1c(N2CCn3nc(C)cc3C2=O)nc2cc(C(N)=O)cc(OCCCN3CC4(CNCCO4)C3)c21 [Compound 5, 1-[(E)-4-[5-Carbamoyl-2-(2-methyl-4-oxo-6,7-dihydropyrazolo[1,5-a]pyrazin-5-yl)-7-[3-(5-oxa-2,8-diazaspiro[3.5]nonan-2-yl)propoxy]benzimidazol-1-yl]but-2-enyl]-2-[(2-ethyl-5-methyl-pyrazole-3-carbonyl)amino]-7-methoxy-benzimidazole-5-carboxamide] | ≤ 7.70 | ≤ 7.70 | > 150 | > 150 | > 150 | ≤ 7.70 | > 150 |
| CCn1nc(C)cc1C(=O)Nc1nc2cc(C(N)=O)cc(OC)c2n1C/C=C/Cn1c(NC(=O)Cc2cc(C)nn2C)nc2cc(C(N)=O)cc(OCCCN3CC4(CNCCO4)C3)c21 [Compound 8] | ≤ 7.70 | ≤ 7.70 | > 150 | > 150 | > 150 | ≤ 7.70 | > 150 |
| CCn1nc(C)cc1C(=O)Nc1nc2cc(C(N)=O)cnc2n1CCCCn1c(NC(=O)c2cc(C)nn2CC)nc2cc(C(N)=O)cc(OCCCN3CCC(c4nnc5n4CCNC5)CC3)c21 [Compound 22] | ≥ 7.70 | ≥ 7.70 | > 150 | > 150 | > 150 | ≥ 7.70 | > 150 |
| CCc1nc(C)oc1C(=O)Nc1nc2cc(C(N)=O)cc(OCCCN3CC4(C3)CN(C(=O)[C@@H](N)CC(C)C)CCO4)c2n1C/C=C/Cn1c(NC(=O)c2cc(C)nn2CC)nc2cc(C(N)=O)cc(OC)c21 [Compound 17] | ≥ 7.70 | ≥ 7.70 | ≤ 50 | ≤ 50 | ≤ 50 | ≥ 7.70 | ≤ 50 |
| CCn1nc(C)cc1C(=O)Nc1nc2cc(C(N)=O)cc(OC)c2n1C/C=C/Cn1c(NC(=O)c2ccnn2CC)nc2cc(C(N)=O)cc(OCCCN3CC4(CNCCO4)C3)c21 [Compound 14] |  |  | ≤ 50 | ≤ 50 | ≤ 50 |  | ≤ 50 |
| CCc1nc(C)oc1C(=O)Nc1nc2cc(C(N)=O)cc3c2n1C/C=C/Cn1c(NC(=O)c2oc(C)nc2CC)nc2cc(C(N)=O)cc(c21)OCC1(CNC1)CO3 [Compound 25] |  |  | > 150 | ≤ 50 | ≤ 50 |  | ≤ 50 |
| CCc1nc(C)oc1C(=O)Nc1nc2cc(C(N)=O)cc(OCCCN3CC4(C3)CN(C(=O)CNC)CCO4)c2n1C/C=C/Cn1c(NC(=O)c2cc(C)nn2CC)nc2cc(C(N)=O)cc(OC)c21 [Compound 18] |  |  | 50 to 150 | > 150 | 50 to 150 |  | > 150 |
